What was measured:
[1] = molecular target: T1, SHP1 (Homo sapiens, UniProt P29350); assay: Vanadate protection jump-dilution experiment; type: biochemical; conditions: 500 µM sodium orthovanadate, 30 min
T1 construct: SHP1, residues 245-543; made in house; host or cells: E. coli BL21(DE3)
Method: To further understand the mode of M029 action and ascertain whether M029 binds the SHP1 active site or a yet undefined novel site in SHP1, we performed a vanadate (VO4 ^3−) protection experiment. Vanadate is a reversible and competitive PTP inhibitor,^[ [76], [77] ^] and thus excessive vanadate would be expected to fully occupy the PTP active site and prevent covalent modifications of residues within the active site pocket. In this assay, SHP1 was co‐incubated with 30 µM M029 and 500 µM sodium orthovanadate or vehicle control for 30 min. The SHP1‐inhibitor complex was then rapidly diluted 100‐fold into a buffered solution containing 10 mM pNPP, and immediately, the absorbance at 405 nm was monitored over time to determine the remaining phosphatase activity.

[2] = tested on: LCK, PLCγ and ERK1/2 phosphorylation in Jurkat T cells; assay: TCR-LCK signaling immunoblot; type: cell-based; conditions: 20 µM
Method: (§1) Supernatants from lysed cells were reduced, treated with iodoacetamide to cap thiol residues, and digested by trypsin for bottom‐up proteomics analysis. […] LCK is the direct substrate of SHP1 and ERK1/2, and PLCγ is the downstream effector protein of LCK‐mediated TCR signaling. […] Statistical analyses were performed with Graphpad Prism software 10.4.2 through the one‐way ANOVA test using Turkey post‐hoc comparison. ****p < 0.0001 was considered significant.
(§2) To further confirm M029 cellular target engagement, we investigated the effect of M029 on T cell function. SHP1 plays a negative role in T cells, and deletion of SHP1 in T cells lowers the activation threshold and enhances antitumor immunity.^[ [30], [31], [32], [33] ^] Mechanistically, SHP1 attenuates T cell receptor (TCR) signaling via dephosphorylation of the lymphocyte‐specific protein tyrosine kinase LCK.^[ [31], [84], [85], [86] ^] T cell activation leads to increased expression and secretion of interleukin 2 (IL‐2)^[ [87] ^] while the removal of SHP1 in T cells enhances IL‐2 production, cell proliferation, and cytolysis capacity.^[ [30], [32] ^] Accordingly, we sought to assess the impact of targeting SHP1 with M029 on TCR‐LCK signaling and T cell activation. […] M029 also dose‐dependently promoted IL‐2 production (Figure 4c). […] These findings corroborate that the observed increase in LCK phosphorylation and its downstream signaling indeed resulted from SHP1 inhibition by M029.
Immunoblotting: Cultured cells were lysed with ice-cold lysis buffer (50 mM Tris, pH 8.0, 150 mM NaCl, 10% Glycerol, 1% Triton-X-100) supplied with phosphatase inhibitor (Bimake) and protease inhibitor mixture (Roche Applied Science). Equal amounts of protein were resolved by SDS-PAGE, transferred to a nitrocellulose membrane, and subjected to immunoblotting. […]

[3] = tested on: IL-2 in Jurkat T cells; assay: IL-2 mRNA / production; type: cell-based; conditions: 20 µM
Method: as §1, §2

[4] = molecular target: T1, SHP1; assay: IC50 after 10-min/60-min preincubation, DiFMUP phosphatase assay; type: biochemical; conditions: negative control analogs of M029
Excerpt: The PTP‐catalyzed reaction involves a nucleophilic attack by the conserved active site Cys side chain on the phosphorus atom of phosphotyrosine in the substrate.^[ [53] ^] As such, the PTPs could serve as prime targets for covalent inhibition. Previously described activity‐based probes or covalent ligands for the PTPs are either phosphotyrosine isosteres or thiol‐reactive compounds that covalently modify the active site residues (including the catalytic Cys) and lack sufficient isozyme specificity.^[ [54], [55], [56], [57], [58], [59], [60], [61] ^] Inspired by the resurgence in covalent inhibitors for difficult drug targets, we set out to discover covalent SHP1 inhibitors by screening for electrophilic fragments that bind covalently to SHP1. This strategy is increasingly utilized to identify novel ligands for a target of interest.^[ [47], [62], [63] ^] We assembled a library of 4600 Cys reactive molecules from the Enamine covalent fragment collections containing 49.0% acrylamide, 38.1% chloroacetamide, 5.15% chloromethylketone, 5.20% activated nitrile, 2.10% epoxide, and 0.53% disulfide (Figure S1A). We carried out a high‐throughput biochemical fragment screening of this curated commercially available library against the SHP1 catalytic domain (residues 245–543). Each fragment (500 µM) was incubated with SHP1 (500 nM) for 30 min at room temperature before diluting the reaction 5.5‐fold with 24.45 mM para‐nitrophenyl phosphate (pNPP) to measure the residual PTP activity. This concentration of substrate was chosen to out‐compete any remaining fragment to reduce the inactivation of SHP1 during the enzymatic hydrolysis of pNPP. After a 2‐min incubation at 25 °C, the reaction was quenched by the addition of 5N NaOH, and the production of para‐nitrophenol was determined by absorbance at 405 nm. This assay format afforded a Z’‐factor of 0.70 (Figure S1B), indicating a robust screen to reliably identify hit molecules. To enhance the probability of discovering covalent ligands with inherent preference for SHP1, we also counter‐screened the same library against SHP2, the closest homolog of SHP1, and two other widely studied PTPs, PTP1B and PTPN22 (also called LYP). […] Among these, 31 were repurchased based on their observed preference for SHP1 and structural diversity, 11 of which were confirmed as potential covalent inhibitors for SHP1 based on the time dependency of their half‐maximal inhibition concentration (IC50) values determined with a 10‐min and 60‐min preincubation time, respectively (Table 1).
To further confirm the time-dependent inhibition and determine the IC50 of acquired hits, repurchased compounds from Enamine were serially diluted in a 96-well plate, followed by the addition of proteins at 200 nM. After 10-minute and 60-minute preincubation, 2 µL of the mixture was transferred into 100 µM 6,8-Difluoro-4-Methylumbelliferyl Phosphate (DiFMUP, Invitrogen, cat# D6567) at a final volume of 200 µL. The reaction was allowed to proceed for 5 minutes and quenched by the addition of 40 µl of a 160 µM solution of bpV(Phen) (Sigma-Aldrich, cat# SML0889). The fluorescence signal was measured using a CLARIOstar Plus Microplate Spectrophotometer (BMG Labtech) using excitation and emission wavelengths of 340 nm and 450 nm, respectively. Data were fitted using Prism GraphPad 10.1.1.

T1 sequence (P29350 245-543): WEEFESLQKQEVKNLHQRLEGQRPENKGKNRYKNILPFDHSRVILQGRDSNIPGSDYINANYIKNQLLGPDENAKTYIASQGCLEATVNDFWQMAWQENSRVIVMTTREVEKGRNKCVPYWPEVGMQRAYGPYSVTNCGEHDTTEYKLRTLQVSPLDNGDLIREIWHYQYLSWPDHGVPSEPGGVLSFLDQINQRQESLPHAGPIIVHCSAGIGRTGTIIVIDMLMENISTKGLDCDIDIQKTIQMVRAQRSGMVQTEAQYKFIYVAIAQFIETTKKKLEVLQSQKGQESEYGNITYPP

SHP1 activity after 100-fold dilution of vanadate complex [1]	SHP1 inhibitory activity (in words) [4]	SMILES	phosphorylation levels of LCK, PLCγ, and ERK1/2 [2]	IL-2 secretion [3]
fully recovered activity		[Na+].[Na+].[Na+].[O]=[V]([O-])([O-])[O-] [sodium orthovanadate, reference compound]		
	loses the ability to inactivate SHP1	CC(=O)Nc1ccc(S(=O)(=O)Nc2sccc2C#N)cc1 [M054, N-(4-(N-(3-cyanothiophen-2-yl)sulfamoyl)phenyl)acetamide]	neither impacted	neither impacted
	inactive against SHP1	O=C(CCl)Nc1ccccc1 [PhClAc, reference compound]	neither impacted	neither impacted
